Assay results from article PMC8253220, “Molecular design, synthesis and in vitro biological evaluation of thienopyrimidine–hydroxamic acids as chimeric kinase HDAC inhibitors: a challenging approach to combat cancer” (Journal of Enzyme Inhibition and Medicinal Chemistry, 2021).
pIC50: −log10 of the molar value. Where “and” joins values, the source holds several entries; their conditions need not be identical. Equal entries are not always repeated.

Experiments:
EGFR = EGFR (Homo sapiens, UniProt P00533); experiment: In vitro EGFR tyrosine kinase inhibitory assay (Z'-LYTE, SelectScreen); type: biochemical; settings: for inhibition at 10 µM: 10 µM single dose
EGFR, sequence (P00533 25-1210): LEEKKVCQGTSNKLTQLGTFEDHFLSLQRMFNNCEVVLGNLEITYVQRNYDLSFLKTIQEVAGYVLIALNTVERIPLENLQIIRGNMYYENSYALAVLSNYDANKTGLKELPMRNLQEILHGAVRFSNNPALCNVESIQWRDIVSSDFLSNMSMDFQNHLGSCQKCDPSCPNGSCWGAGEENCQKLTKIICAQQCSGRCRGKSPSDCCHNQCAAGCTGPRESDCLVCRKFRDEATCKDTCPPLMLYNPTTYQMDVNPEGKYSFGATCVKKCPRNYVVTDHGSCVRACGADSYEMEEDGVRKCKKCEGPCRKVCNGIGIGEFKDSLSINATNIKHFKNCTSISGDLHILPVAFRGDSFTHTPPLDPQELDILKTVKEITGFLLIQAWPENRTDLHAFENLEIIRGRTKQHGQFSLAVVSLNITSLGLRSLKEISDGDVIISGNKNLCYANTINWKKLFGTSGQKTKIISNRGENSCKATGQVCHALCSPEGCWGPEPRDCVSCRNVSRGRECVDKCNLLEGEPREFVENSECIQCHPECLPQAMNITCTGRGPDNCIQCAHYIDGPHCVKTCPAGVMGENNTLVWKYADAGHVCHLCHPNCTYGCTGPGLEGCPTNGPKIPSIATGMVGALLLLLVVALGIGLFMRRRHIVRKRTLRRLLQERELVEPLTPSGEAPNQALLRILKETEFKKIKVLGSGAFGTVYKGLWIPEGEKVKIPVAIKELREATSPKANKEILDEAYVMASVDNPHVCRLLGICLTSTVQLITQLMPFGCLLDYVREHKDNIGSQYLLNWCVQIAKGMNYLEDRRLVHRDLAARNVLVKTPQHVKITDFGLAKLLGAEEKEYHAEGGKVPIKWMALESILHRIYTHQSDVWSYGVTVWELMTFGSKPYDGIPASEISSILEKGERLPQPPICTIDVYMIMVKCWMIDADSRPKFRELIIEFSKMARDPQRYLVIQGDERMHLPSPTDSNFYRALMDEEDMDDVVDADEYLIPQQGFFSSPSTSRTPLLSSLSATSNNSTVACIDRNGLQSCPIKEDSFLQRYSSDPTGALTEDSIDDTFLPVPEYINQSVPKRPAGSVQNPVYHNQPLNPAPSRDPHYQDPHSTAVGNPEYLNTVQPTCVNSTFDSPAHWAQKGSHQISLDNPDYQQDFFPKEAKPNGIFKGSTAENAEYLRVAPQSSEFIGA
In short: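 Z'-LYTE fluorescence coupled-enzyme format, read-out based on differential protease cleavage of phosphorylated vs non-phosphorylated peptide. Compounds screened at 10 µM single dose for % inhibition, then selected ones tested at 0.1 nM–10 µM for IC50 by curve fitting.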

NCI-H460 = experiment: NCI one-dose screen; type: cell-based, human; settings: NSCLC NCI-H460, 10 µM single dose
In short: (§1)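 One concentration (10 μM) applied to each line of the full NCI-60 panel; percent growth compared against untreated cells.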

SN12C = experiment: NCI one-dose screen; type: cell-based, human; settings: Renal SN12C, 10 µM single dose
In short: as §1

HT29 = experiment: NCI one-dose screen; type: cell-based, human; settings: Colon HT29, 10 µM single dose
In short: as §1

CCRF-CEM = experiment: NCI one-dose screen; type: cell-based, human; settings: Leukemia CCRF-CEM, 10 µM single dose
In short: as §1

UO-31 = experiment: NCI one-dose screen; type: cell-based, human; settings: Renal UO-31, 10 µM single dose
In short: (§2)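 Single dose of 10 μM tested across the full NCI-60 cell panel. Values are percent growth inhibition relative to untreated control cells, following standard NCI methodology.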

K-562 = experiment: NCI one-dose screen; type: cell-based, human; settings: Leukemia K-562, 10 µM single dose
In short: as §1

U251 = experiment: NCI one-dose screen; type: cell-based, human; settings: CNS U251, 10 µM single dose
In short: as §2

SK-MEL-28 = experiment: NCI one-dose screen; type: cell-based, human; settings: Melanoma SK-MEL-28, 10 µM single dose
In short: (§3)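 At 10 μM, a single concentration, compounds were evaluated for antiproliferative effect in the NCI 60-line screen, with growth expressed relative to untreated control cells.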

MDA-MB-435 = experiment: NCI one-dose screen; type: cell-based, human; settings: Melanoma MDA-MB-435, 10 µM single dose
In short: as §1

NCI-H322M = experiment: NCI one-dose screen; type: cell-based, human; settings: NSCLC NCI-H322M, 10 µM single dose
In short: as §1

SNB-75 = experiment: NCI one-dose screen; type: cell-based, human; settings: for Growth Percent: CNS SNB-75, 10 µM single dose
In short: as §2

NCI-H23 = experiment: NCI one-dose screen; type: cell-based, human; settings: NSCLC NCI-H23, 10 µM single dose
In short: as §2

SK-MEL-5 = experiment: NCI one-dose screen; type: cell-based, human; settings: Melanoma SK-MEL-5, 10 µM single dose
In short: as §1

BT-549 = experiment: NCI one-dose screen; type: cell-based, human; settings: Breast BT-549, 10 µM single dose
In short: as §1

HCT-15 = experiment: NCI one-dose screen; type: cell-based, human; settings: Colon HCT-15, 10 µM single dose
In short: as §1

OVCAR-5 = experiment: NCI one-dose screen; type: cell-based, human; settings: Ovarian OVCAR-5, 10 µM single dose
In short: as §1

OVCAR-4 = experiment: NCI one-dose screen; type: cell-based, human; settings: Ovarian OVCAR-4, 10 µM single dose
In short: as §1

MDA-MB-468 = experiment: NCI one-dose screen; type: cell-based, human; settings: Breast MDA-MB-468, 10 µM single dose
In short: as §2

HL-60(TB) = experiment: NCI one-dose screen; type: cell-based, human; settings: Leukemia HL-60(TB), 10 µM single dose
In short: as §3

OVCAR-8 = experiment: NCI one-dose screen; type: cell-based, human; settings: Ovarian OVCAR-8, 10 µM single dose
In short: as §1

PC-3 = experiment: NCI one-dose screen; type: cell-based, human; settings: Prostate PC-3, 10 µM single dose
In short: as §3

NCI/ADR-RES = experiment: NCI one-dose screen; type: cell-based, human; settings: Ovarian NCI/ADR-RES, 10 µM single dose
In short: as §1

full NCI 60 cell panel = experiment: NCI one-dose screen, whole panel statistics; type: cell-based, human; settings: 1.00E-5 Molar; for Mean Growth Percent: mean over panel
In short: as §3

SMILES	melting point [°C]	inhibition at 10 µM (EGFR) [%]	Growth Percent (NCI-H460)	Growth Percent (SN12C)	Growth Percent (HT29)	Growth Percent (CCRF-CEM)	Growth Percent (UO-31)	Growth Percent (K-562)	Growth Percent (U251)	Growth Percent (SK-MEL-28)	Growth Percent (MDA-MB-435)	Growth Percent (NCI-H322M)	Growth Percent (SNB-75)	Growth Percent (NCI-H23)	Growth Percent (SK-MEL-5)	Growth Percent (BT-549)	Growth Percent (HCT-15)	Growth Percent (OVCAR-5)	Growth Percent (OVCAR-4)	Growth Percent (MDA-MB-468)	further results
Cc1c(C(=O)NCCCC(=O)NO)sc2ncnc(Nc3ccc(NC(=O)Nc4cccc(C(F)(F)F)c4)cc3)c12 [Compound 12c, 1–(4-(6-((4-(hydroxyamino)-4-oxobutyl)carbamoyl)-5-methylthieno[2,3-d]pyrimidin-4-ylamino)phenyl)-3–(3-(trifluoromethyl)phenyl)urea]	215 to 217	66	101.9% and 101.92%	104.6% and 104.65%	104.0% and 104.09%	107.8% and 107.81%	89.6% and 89.64%	103.8% and 103.86%	87.3% and 87.39%	109.2% and 109.22%	101.5% and 101.59%	105.0% and 105.06%	70.7% and 70.76%	104.6% and 104.64%	100.9% and 100.91%	118.8% and 118.81%	99.9% and 99.96%	111.3% and 111.33%	110.1% and 110.14%	105.6% and 105.66%	inhibition at 0.0001 µM (EGFR; 0.1 nM compound, 10 μM ATP, read-out: % Inhibition mean, EGFR (ErbB1)): 6%; inhibition at 0.001 µM (EGFR; 1 nM compound, 10 μM ATP, read-out: % Inhibition mean, EGFR (ErbB1)): 4%; inhibition at 0.01 µM (EGFR; 10 nM compound, 10 μM ATP, read-out: % Inhibition mean, EGFR (ErbB1)): 4%; inhibition at 0.1 µM (EGFR; 100 nM compound, 10 μM ATP, read-out: % Inhibition mean, EGFR (ErbB1)): 7%; inhibition at 1 µM (EGFR; 1000 nM compound, 10 μM ATP, read-out: % Inhibition mean, EGFR (ErbB1)): 34%; pIC50 (EGFR; read-out: IC50 in enzyme assays EGFR): 5.94; inhibition at 10 µM (SNB-75; Homo sapiens, CNS SNB-75, 10 μM): 29.2%; Growth Percent (HL-60(TB)): 104.7% and 104.71%; Growth Percent (OVCAR-8): 105.9% and 105.93%; Growth Percent (PC-3): 111.1% and 111.12%; Growth Percent (NCI/ADR-RES): 99.2% and 99.22%; Delta (one dose mean graph) (full NCI 60 cell panel): 33.40%; Range (one dose mean graph) (full NCI 60 cell panel): 59.27%; Mean Growth Percent (full NCI 60 cell panel): 104.16%
Cc1c(C(=O)NO)sc2ncnc(Nc3ccccc3)c12 [Compound 15b, N-hydroxy-5-methyl-4-(phenylamino)thieno[2,3-d]pyrimidine-6-carboxamide]	200	98	101.6% and 101.66%	92.8% and 92.82%	100.5% and 100.52%	98.7% and 98.78%	72.7% and 72.78%	94.9% and 94.99%	90.0% and 90.06%	100.9% and 100.91%	98.5% and 98.58%	101.8% and 101.81%	74.2% and 74.29%	90.5% and 90.51%	99.0% and 99.02%	112.4% and 112.44%	91.3% and 91.34%	98.4% and 98.41%	94.7% and 94.72%	80.8%	Growth Percent (HL-60(TB)): 103.0% and 103.03%; Growth Percent (OVCAR-8): 104.4% and 104.46%; Growth Percent (PC-3): 100.1% and 100.15%; Growth Percent (NCI/ADR-RES): 96.1% and 96.17%; Delta (one dose mean graph) (full NCI 60 cell panel): 24.31%; Range (one dose mean graph) (full NCI 60 cell panel): 53.05%; Mean Growth Percent (full NCI 60 cell panel): 97.09%
